Measured values reported in publication PMC6753678, “Fueling Open Innovation for Malaria Transmission-Blocking Drugs: Hundreds of Molecules Targeting Early Parasite Mosquito Stages” (Frontiers in Microbiology, 2019).
Like-named read-outs stand apart in the source and are kept apart here.

What was measured:
[1] = system: P. berghei ookinete development; settings: for % inhibition, Replicate A / % inhibition, Replicate B: primary screen at 1 μM
[2] = system: HepG2 cells; experiment: HepG2 cytotoxicity assay; settings: for IC50: read-out: HepG2 cytotoxicity assay IC50, dose response confirmation; for Pb ODA (this manuscript) HepG2 cytoxicity: HepG2 cytotoxicity listed with the Pb ODA data set (this manuscript)
Summary of the method: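 Here viability after a 48 h compound incubation (37°C, humidified 5% CO2) is measured by fluorescence and expressed as percent inhibition, with doxorubicin at 50 μM and DMSO as the bounding controls.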

[3] = system: 3D7-strain P. falciparum asexual parasites; experiment: P. falciparum asexual growth inhibition assay (Pf GIA); type: cell-based, Plasmodium falciparum; settings: dose response confirmation; read-out: Pf asexual growth inhibition assays IC50
Summary of the method: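 Read-out was lactate dehydrogenase activity measured by absorbance at 650 nm after freezing and thawing, against 50 μM chloroquine and DMSO controls. Before that, asexual 3D7 cultures (0.25% parasitemia, 2% hematocrit) had 72 h dose-response compound exposure at 37°C in 5% CO2/5% O2/90% N2; three independent replicates averaged.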

[4] = read-out: Pb Ookinete development assay IC50, dose response confirmation
[5] = HepG2 values of the three screens unified
[6] = read-out: Pb ODA IC50, this manuscript
[7] = unified HepG2 value across the three screens
[8] = read-out: Pb ODA (this manuscript) IC50, P. berghei ookinete development assay, this manuscript

Structure (SMILES)	Is compound selective in assay? Pb ODA active? ([1]; 1: YES, 0: NO)	% inhibition, Replicate A [1]	% inhibition, Replicate B [1]	IC50 [1, 4]	Unified cytotox [2, 5]	IC50 [2]	IC50 [3]	IC50 [1, 6]	HepG2 cytoxicity (Pb ODA, this manuscript) [2]	Unified cytotox [2, 7]	Is compound selective in assay? Pb ODA active? [1]	IC50 [1, 8]	Pb ODA (this manuscript) HepG2 cytoxicity [2]
Cc1[nH]c(C)c(-c2ccc(-c3cccc(C(F)(F)F)c3)nc2)c(=O)c1Br [TCMDC-135911]	1 (1: YES)	105.47%	112.19%	400 nM	100.00 µM	100000 nM	45 nM						
Cc1[nH]c(C)c(-c2ccc(-c3ccc(F)cc3)nc2)c(=O)c1Br [TCMDC-135925]	1 (1: YES)	61.34%	86.73%	542 nM	33.11 µM	33100 nM	319 nM	540 nM	33.11 µM				
Cc1[nH]c(C)c(-c2ccc(-c3ccccc3F)nc2)c(=O)c1Br [TCMDC-135926]	1 (1: YES)	85.66%	106.09%	461 nM	100.00 µM	100000 nM	222 nM	460 nM					
Cc1[nH]c(C)c(-c2ccc(-c3ccccc3F)nc2)c(=O)c1Cl [TCMDC-135927]	1 (1: YES)	86.73%	100.97%	432 nM	100.00 µM	100000 nM	339 nM	430 nM					
COc1cc(Nc2ncc3c(C)nc(-c4cccc(Nc5ccc(CN6CCS(=O)(=O)CC6)cc5)c4)n3n2)cc(OC)c1OC [TCMDC-136003]	1 (1: YES)	93.24%	100.90%	175 nM		30900 nM	1400 nM	180 nM		30.90 µM			
Cc1noc(C)c1-c1ccc2c(Nc3ccc(Cl)cc3)c(C(N)=O)cnc2c1.Cl [TCMDC-136010]		77.30%	54.77%	6660 nM		4840 nM	53 nM				0 (key: 1: YES; 0: NO)	6660 nM	4.84 µM
Cc1[nH]c(C)c(-c2ccc(-c3ccc(C(F)(F)F)cc3C(F)(F)F)nc2)c(=O)c1Br [TCMDC-136013]	1 (1: YES)	94.49%	93.70%	185 nM	7.41 µM	7410 nM	154 nM	190 nM	7.41 µM				
Cc1[nH]c(C)c(-c2ccc(CCc3cccc(C(F)(F)F)c3)nc2)c(=O)c1Cl [TCMDC-136014]	1 (1: YES)	91.00%	104.63%	123 nM	7.08 µM	7080 nM	93 nM	120 nM	7.08 µM				
Cc1[nH]c(C)c(-c2ccc(-c3cc(C(F)(F)F)cc(C(F)(F)F)c3)nc2)c(=O)c1Br [TCMDC-136015]	1 (1: YES)	84.59%	96.22%	107 nM	1.26 µM	1260 nM	24 nM	110 nM	1.26 µM				
Cc1[nH]c(C)c(-c2ccc(-c3ccc(OC(F)(F)F)cc3)nc2)c(=O)c1Br [TCMDC-136016]	1 (1: YES)	59.20%	74.30%	446 nM	100.00 µM	100000 nM	326 nM	450 nM					
Cc1[nH]c(C)c(-c2csc3ccccc23)c(=O)c1Cl [TCMDC-136017]	1 (1: YES)	37.82%	76.50%	1840 nM		100000 nM	2260 nM	1840 nM		100.00 µM			
Cc1noc(C)c1-c1ccc2c(Nc3ccc(C(F)(F)F)cc3)c(C(N)=O)cnc2c1.Cl [TCMDC-136019]		61.84%	39.20%	5460 nM		49000 nM	365 nM				0 (key: 1: YES; 0: NO)	5460 nM	48.98 µM
